{"source": "patent US5795885A", "about": "“Method of inhibiting profileration of cells by administering an aminosterol compound” (priority 1995, dated 1998)", "key": {"[1]": {"system": "rabbit NHE1", "experiment": "internal pH recovery, PS120 fibroblasts transfected with rabbit NHE1 (BCECF-AM)", "format": "cell-based", "conditions": "5 μg/ml; acid-preloaded by 40 mM NH4Cl", "procedure": "PS120 fibroblasts transfected with rabbit or human NHE1 were grown as described above."}, "[2]": {"system": "bovine pulmonary endothelial cells", "experiment": "growth inhibition of bovine pulmonary endothelial cells in vitro", "format": "cell-based", "conditions": "1 μg/ml"}, "[3]": {"system": "human epithelial cell line MCF 10A", "experiment": "growth inhibition of human epithelial cells in vitro", "format": "cell-based", "conditions": "10 μg/ml"}, "[4]": {"system": "human foreskin fibroblasts", "experiment": "growth inhibition of human foreskin fibroblasts in vitro", "format": "cell-based", "conditions": "10 μg/ml"}, "[5]": {"system": "human microvascular cells", "experiment": "endothelial cell cord formation in vitro", "format": "cell-based", "description": "Endothelial cells have the capacity in vitro to form tubular aggregates resembling capillaries in various early stages of formation. This conversion occurs under relatively specific conditions, in which essential growth factors along with an effective substratum are provided. It has been shown that both the interaction of growth factors with the endothelial cell and its attachment to a substratum activate the NHE. The activation of this exchanger is believed to be required for subsequent morphologic transformation of the endothelial cell into a multicellular tubular structure.\nTo assess the effect of compounds on the cord-like structures formed by human microvascular cells when plated in the presence of VEGF (Vascular Endothelial Growth Factor) and basic fibroblast growth factor on a collagen matrix, a standard cord formation assay was used."}, "[6]": {"system": "chick chorioallantoic membrane", "experiment": "chorioallantoic membrane (CAM) model, capillary growth", "format": "in vivo", "description": "The growing capillaries within the chorioallantoic membrane model (CAM model) have been used as a system in which to evaluate the effect of agents on their potential to inhibit new vessel growth. Neovascularization occurs most aggressively over the first week of embryonic development. Thereafter capillary growth is characterized by principally \"elongation\" rather than \"de novo\" formation.\nIn the standard assay, agents are applied locally to a region of the embryo over which neovascularization will occur. Agents are assessed by their ability to inhibit this process, as evaluated by visual examination about 7 days after application. […] The assay utilized is described in detail in Auerbach et al., Pharm. Ther. 51, 1991, 1-11."}, "[7]": {"system": "chick embryo vitelline capillaries", "experiment": "chick embryo vitelline capillary regression assay", "format": "in vivo", "design": "key to vitelline capillary regression: +: Vascular reactivity; 0: No vascular reactivity; +/-: Equivocal reactivity", "conditions": "for vitelline capillary regression: 60 minutes", "summary_of_the_method": "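Compounds applied to 3- to 5-day chick embryos in 0.1 ml of 15% Ficol 400 in PBS. Regression of vitelline capillaries, seen as pinching-off of capillary loops into enclosed sacs, was scored visually after 60 minutes.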"}, "[8]": {"system": "B16 melanoma", "experiment": "B16 melanoma growth in C57B mice", "format": "in vivo, mouse", "procedure": "The growth of B16 melanoma in C57B mice is dependent upon neovascularization.\nUsing the growth of B16 melanoma cells in C57B mice, a recognized model for the evaluation of inhibitors of angiogenesis on the growth of cancers, the effects of subcutaneous, intraperitoneal and oral administration of squalamine were evaluated.\nBased on the idea that tumor growth involves both the clonal expansion of a malignant cell along with the development of a supporting vascular supply, a combination of compound 1436 with squalamine was tested to determine whether it would achieve a synergistic effect on solid tumor growth. This concept was evaluated in the B16 melanoma model.\nAnimals were implanted with B16 melanoma followed by treatment with compound 1436 or 1256 administered in a combined schedule or separately. […] Thus, a combination of these two compounds achieves a therapeutic benefit in tumors dependent on neovascularization that may prevent metastatic spread."}, "[9]": {"system": "PHA-stimulated human lymphocytes", "experiment": "inhibition of mitogen (PHA)-stimulated growth of human T-cells", "format": "cell-based", "description": "Results are tabulated below."}, "[10]": {"system": "Murine B16 melanoma", "experiment": "growth inhibition in vitro", "format": "cell-based", "conditions": "except at very high concentrations", "description": "As set forth in Table 7 below, all malignant tumors evaluated in tissue culture, endothelial cells and vascular smooth muscle cells were sensitive to inhibition. Thus, compound 1436 has application in the control of growth factor dependent proliferation of many types of tissue."}, "[11]": {"system": "human coronary artery smooth muscle", "experiment": "proliferation of human coronary artery smooth muscle in vitro", "format": "cell-based", "conditions": "FIG. 15", "description": "Aminosterols of the invention may also have utility in inhibiting the growth factor mediated proliferation of smooth muscle within the artery. Following coronary angioplasty, reocclusion commonly occurs, secondary to reparative proliferation of the vascular smooth muscle within the wall of the surgically manipulated blood vessel. This process generally takes place over the course of 7-10 days. To evaluate whether an agent could prevent the growth factor mediated proliferation of smooth muscle within the artery, compound 1436 was evaluated in vitro for its effect on the proliferation of human coronary artery smooth muscle. Results for compound 1436 are shown in FIG. 13, and those for squalamine are shown in FIG. 14, with FIG. 15 being a composite logarithmic plot."}, "[12]": {"system": "stage 59-60 Xenopus tadpoles", "conditions": "10 μg/ml in water"}, "[13]": {"system": "bacteria, fungi and protozoa", "conditions": "cited from earlier work"}, "[14]": {"system": "human umbilical venous endothelial cells", "experiment": "LPS/TNF-α-induced neutrophil adherence to human umbilical venous endothelial cells", "conditions": "10, 1.0 or 0.1 μg; three different subjects", "protocol": "In these experiments, approximately 2×10^5 human umbilical venous cells (passage 2-6) were plated per well. The cells were grown in serum-free media overnight. For induction, either TNF-α (40 ng/ml) was added to endothelial cells for 6 hours prior to adding neutrophils or LPS (100 ng/ml) was added for 4-6 hours. […] After activation of the endothelial cells, approximately 50×10^6 neutrophils were added per well. The plates were gently rocked for 30 minutes at room temperature, followed by removal of the media and washing in serum-free media three times and then photographing of each well. […] A monoclonal Ab to ICAM-1 was a positive control."}, "[15]": {"biological_target": "rabbit NHE3 (Oryctolagus cuniculus, UniProt P26432)", "sequence (P26432 30-832)": "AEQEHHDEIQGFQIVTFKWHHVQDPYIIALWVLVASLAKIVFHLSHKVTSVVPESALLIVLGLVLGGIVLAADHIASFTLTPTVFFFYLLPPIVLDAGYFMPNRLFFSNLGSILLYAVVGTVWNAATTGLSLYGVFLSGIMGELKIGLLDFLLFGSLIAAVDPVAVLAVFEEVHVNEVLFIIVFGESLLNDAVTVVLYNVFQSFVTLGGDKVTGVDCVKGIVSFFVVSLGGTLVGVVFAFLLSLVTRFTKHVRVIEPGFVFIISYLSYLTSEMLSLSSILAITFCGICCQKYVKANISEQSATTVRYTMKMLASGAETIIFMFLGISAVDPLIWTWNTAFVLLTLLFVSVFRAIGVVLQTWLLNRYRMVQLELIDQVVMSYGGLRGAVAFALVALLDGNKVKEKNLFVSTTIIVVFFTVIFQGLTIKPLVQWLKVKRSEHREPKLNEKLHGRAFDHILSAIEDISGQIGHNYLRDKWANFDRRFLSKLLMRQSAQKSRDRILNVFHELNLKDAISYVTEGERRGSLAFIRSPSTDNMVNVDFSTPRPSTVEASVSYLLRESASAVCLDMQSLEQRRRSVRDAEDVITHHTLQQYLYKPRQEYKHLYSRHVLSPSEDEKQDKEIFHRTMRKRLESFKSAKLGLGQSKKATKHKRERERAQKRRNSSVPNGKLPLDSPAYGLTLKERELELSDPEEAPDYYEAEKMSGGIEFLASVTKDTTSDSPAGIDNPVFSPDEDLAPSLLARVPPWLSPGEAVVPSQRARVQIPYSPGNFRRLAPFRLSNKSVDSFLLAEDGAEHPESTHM", "conditions": "5 μg/ml", "protocol": "Internal pH was measured either following acid loading or in the absence of an acid-loading challenge, with the results shown in FIGS. 1A and 1B.\nSpecifically, PS120 fibroblasts transfected with rabbit NHE3 were grown in supplemented Dulbecco's-modified Eagle's medium as described by Levine et al., J. Biol. Chem. 268, 1993, 25527-25535. […] For cells not acid-preloaded, the actual internal pH value was monitored as a function of time following addition of squalamine, with the results depicted in FIG. 1B.\nPS120 fibroblasts transfected with rabbit NHE3 were grown and acid preloaded by exposure to 40 mM NH4 Cl as described above in conjunction with FIGS. 1A and 1B. Internal cellular pH changes expressed as the rate of pH recovery as a function of restored extracellular sodium ion concentration following exposure to 10 μg/ml of the compound were assayed with the fluorescent dye BCECF-AM as described above."}}, "data": [{"smiles": "CC(C)[C@@H](CC[C@@H](C)[C@H]1CC[C@H]2[C@@H]3[C@H](O)C[C@H]4C[C@@H](NCCCNCCCCN)CC[C@]4(C)[C@H]3CC[C@]12C)OS(=O)(=O)O", "note": "[Squalamine, squalamine]", "values": [{"measurement": "inhibition of rabbit NHE1", "setting": "[1]", "value": "no inhibitory activity"}, {"measurement": "growth of bovine pulmonary artery endothelial cells (BPE)", "setting": "[2]", "value": "inhibited the growth"}, {"measurement": "growth of epithelial line", "setting": "[3]", "value": "no effect on the growth"}, {"measurement": "growth of fibroblast line", "setting": "[4]", "value": "no effect on the growth"}, {"measurement": "effect on endothelial cord formation", "setting": "[5]; 0.01 μg/ml", "value": "-"}, {"measurement": "effect on endothelial cord formation", "setting": "[5]; 0.1 μg/ml", "value": "+"}, {"measurement": "effect on endothelial cord formation", "setting": "[5]; 1.0 μg/ml", "value": "+"}, {"measurement": "effect on endothelial cord formation", "setting": "[5]; 10.0 μg/ml", "value": "+"}, {"measurement": "cell viability or proliferation", "setting": "[5]; at these concentrations", "value": "does not appear to profoundly affect cell viability or proliferation"}, {"measurement": "amount resulting in inhibition of CAM vessel neovascularization", "setting": "[6]; 3-day CAM", "value": "≤ 0.65", "unit": "µg"}, {"measurement": "inhibitory effect on 13-day old chick", "setting": "[6]; ten times 0.65 μg", "value": "no inhibitory effect"}, {"measurement": "vitelline capillary regression", "setting": "[7]; 0.001 μg applied", "value": 0}, {"measurement": "vitelline capillary regression", "setting": "[7]; 0.01 μg applied", "value": "+"}, {"measurement": "vitelline capillary regression", "setting": "[7]; 0.1 μg applied", "value": "+"}, {"measurement": "vitelline capillary regression", "setting": "[7]; 1 μg applied", "value": "+"}, {"measurement": "vitelline capillary regression", "setting": "[7]; 10 μg applied", "value": "+"}, {"measurement": "hemolysis", "setting": "[7]; 0.1 ml in 15% Ficol in PBS", "value": "absence of hemolysis"}, {"measurement": "hemorrhage", "setting": "[7]; 0.1 ml in 15% Ficol in PBS", "value": "No hemorrhage was seen"}, {"measurement": "lag period before vessel constriction", "setting": "[7]; 0.1 ml in 15% Ficol in PBS", "value": "around 15 minutes"}, {"measurement": "activity in vitelline capillary regression assay (in words)", "setting": "[7]; in vivo", "value": "especially active"}, {"measurement": "effect on chick embryo vitelline capillaries (in words)", "setting": "[7]; in vivo", "value": "found to disrupt vitelline capillaries in 3- to 5-day chick embryos"}, {"measurement": "suppression of tumor volume", "setting": "[8]; intraperitoneal", "value": "a dose-dependent suppression of tumor volume was observed"}, {"measurement": "suppression of tumor volume", "setting": "[8]; oral", "value": "a dose-dependent suppression of tumor volume was observed"}, {"measurement": "body weight and hematologic parameters", "setting": "[8]; s.c., i.p. or oral treatment", "value": "no significant depression"}, {"measurement": "tumor growth, single agent", "setting": "[8]; squalamine 15 mg/kg/day, compound 1436 alone in a tolerable schedule", "value": "Neither administration of squalamine at 15 mg/kg/day nor compound 1436 alone in a tolerable schedule could achieve this effect"}, {"measurement": "impact on tumor volume", "setting": "[8]; squalamine alone 5 mg/kg/day", "value": "no significant impact on tumor volume"}, {"measurement": "suppression of tumor volume", "setting": "[8]; subcutaneous", "value": "a dose-dependent suppression of tumor volume was observed"}, {"measurement": "inhibition of blast transformation (in words)", "setting": "[9]; 10 μg/ml", "value": "Some effect was observed"}, {"measurement": "inhibition at 1 µg/mL", "setting": "[9]; Homo sapiens, Lymphocyte, 1 μg/ml, read-out: inhibition of PHA-stimulated human lymphocytes (% control)", "value": 3, "unit": "%"}, {"measurement": "inhibition at 5 µg/mL", "setting": "[9]; Homo sapiens, Lymphocyte, 5 μg/ml, read-out: inhibition of PHA-stimulated human lymphocytes (% control)", "value": 8, "unit": "%"}, {"measurement": "inhibition at 10 µg/mL", "setting": "[9]; Homo sapiens, Lymphocyte, 10 μg/ml, read-out: inhibition of PHA-stimulated human lymphocytes (% control)", "value": 10, "unit": "%"}, {"measurement": "cytostatic activity against B16 in culture", "setting": "[10]", "value": "minimal cytostatic activity against B16 in culture"}, {"measurement": "suppression of growth (in words)", "setting": "[11]", "value": "suppress in vitro the growth of human coronary artery smooth muscle"}, {"measurement": "time to death of tadpole", "setting": "[12]", "value": "≤ 2", "unit": "h"}, {"measurement": "pharmacological response in tadpole", "setting": "[12]; listed as Compound 1256 (Squalamine)", "value": "Vascular occlusion in fine capillaries of tail. No effect on vascular flow through hands or feet."}, {"measurement": "antibiotic activity", "setting": "[13]", "value": "broad-spectrum antibiotic, killing bacteria, fungi and protozoa"}, {"measurement": "inhibition of neutrophil adherence", "setting": "[14]", "value": "no inhibition"}, {"measurement": "inhibition of NHE3", "setting": "[15]; acid-preloaded by 40 mM NH4Cl", "value": "inhibited NHE3 with respect to proton concentration at both Km and Vmax levels"}, {"measurement": "resting pH", "setting": "[15]; cells not acid-preloaded", "value": "the resting pH of these cells was also inhibited"}]}]}
